tested on: strains included in MTC01; assay: Antibiotic susceptibility, MIC by CLSI standards (Micromyx) and in-house etest; type: cell-based; details: highest value of CLSI and etest methods
Source text: To be suitable for human trials, the strains in the bacterial consortium must be cultivatable in growth media that is free of animal products. The inventors discovered that all 16 bacterial strains can be cultured in a specific animal free media LYH_VIB (Table 7). All strains reach sufficient optical density (OD600) and potency (CFU/mL) cultured in LYH_VIB to be manufactured for human trials (Table 5). For safety considerations, the inventors focused on bacterial consortium strains that would be susceptible to multiple antibiotics. The inventors tested susceptibility to a range of antibiotics for all strains included in MTC01 and the minimal inhibitory concentration (MIC) was determined according to guidelines of the Clinical and Laboratory Standards Institute (CLSI). All strains were susceptible to multiple antibiotics (Table 6). […] The inventors confirmed that all 16 strains were strict anaerobes with no bacterial growth documented for any of the strains under aerobic conditions as confirmed by total aerobic microbial count (TAMC).
Each strain is susceptible to multiple antibiotics, and all strains are susceptible to three antibiotics (SAM, AMC, MEM). Minimum inhibitory concentrations (MIC) were determined by a CRO [Micromyx, LLC] according to CLSI standards and in-house by etest, keeping the highest value between the two methods: vancomycin (VAN), metronidazole (MTZ), tigecycline (TGC), ampicillin/sulbactam (SAM), amoxicillin/clavulanic acid (AMC), meropenem (MEM), piperacillin/tazobactam (TZP), clindamycin (CLI), ceftriaxone (CRO), moxifloxacin (MOX). […] Finally, multiple test fermentations were used to determine that the volumes for each manufacturing run are well within the 8L capacity of our current manufacturing set-up.

Row | Molecule | susceptibility of all MTC01 strains to the antibiotic
1 | C[C@@H](O)[C@H]1C(=O)N2C(C(=O)O)=C(S[C@@H]3CN[C@H](C(=O)N(C)C)C3)[C@H](C)[C@H]12 [MEM, meropenem] | susceptible
2 | amoxicillin/clavulanic acid [AMC] | susceptible
3 | ampicillin/sulbactam [SAM] | susceptible

tested on: patients with rCDI; assay: Validation of bacterial strain engraftment through culturing from donor and recipient post-FMT; type: in vivo, human; details: 8 weeks post-FMT; number of strains of the species
Source text: The isolation and sequencing of the transmitted strains from both the donor and the recipient represents a gold standard validation and verification of the commensal Koch’s postulates. […] The inventors cultured strains from 6 recipients both pre- and post-FMT (FIG. 2A) and compared the strain composition to that from the donor, to experimentally validate bacterial strain transmission.

Row | Molecule | Cultured in both donor and recipient post-FMT at 8 weeks
4 | Bacteroides cellulosilyticus | 1 strains
5 | Bacteroides fragilis | 1 strains
6 | Bifidobacterium longum | 4 strains
7 | Parabacteroides distasonis | 3 strains
